Results on ten compounds are retold here after US6593323B1, “Benzimidazole compounds and drugs containing the same” (Fuji Photo Film Co., Ltd., priority 1999, dated 2003).

The test relates to mouse peritoneal macrophages. Description: Suppression of foaming of macrophages: cholesterol ester (CE) production in mouse peritoneal macrophages loaded with liposomes. Format: cell-based. The settings on record: for CE yield (%): test compound 5 μM, 16 h with liposomes, cholesterol ester yield relative to control without test compound = 100% (smaller value = more potent suppression); for suppression of foaming of macrophages / cholesterol ester synthesis (result in words): mouse peritoneal macrophages, 5 μM. How it is done:
Activity of the compounds of the present invention for suppressing the foaming of macrophages, which triggers arterial sclerosis, was examined. (1) In vitro experiment using mouse peritoneal macrophages.
15-Week old female ICR mice (Nippon SLC) were subjected to bleeding by cutting off their cervicalis, and Hanks buffer (Nippon Seiyaku) was injected into their peritoneal cavities. After abdominal regions of the mice were massaged, the buffer was recovered immediately, and then the resulting buffer was centrifuged at 1,000 r.p.m. for five minutes to collect peritoneal macrophages. Then, the collected macrophages were suspended in GTI medium (Wako Pure Chemical Industries), and inoculated onto a 24-well microtiter plate. After the macrophages were cultivated at 37° C. under 5% CO2 for two hours, the culture medium was changed with Dulbecco Modified Eagle Medium (MEM, Nippon Seiyaku). The macrophages were further cultivated at 37° C. under 5% CO2 for 16 hours, and then a test compound and liposomes were added to the culture.
1) Test compound: dissolved in DMSO (Wako Pure Chemical Industries),
2) Liposomes: PC/PS/DCP/CHOL=50/50/10/75 (nmol)
PC: Phosphatidylcholine (Funakoshi);
PS: Phosphatidylserine (Funakoshi);
DCP: Dicetylphosphate (Funakoshi);
CHOL: Cholesterol (Sigma)
After cultivation was further continued at 37° C. under 5% CO2 for 16 hours, lipid fraction was extracted with chloroform and methanol. The extracted lipid fraction was dissolved in isopropyl alcohol, and the produced cholesterol ester (CE) was quantified by an enzymatic luminescence method. Yield of the cholesterol ester was calculated as a relative ratio based on yield of the control as 100% where no test compound was added.

As to `O=C1CSC(=O)N1CCOCCOCCSc1nc2ccccc2[nH]1` [Compound 23, 3-(2-(2-(2-benzimidazolyl-2-thio)ethoxy)ethoxy)ethyl-2,4-thiazolidinedione], the “CE yield (%)” value came out at 22%.
Same read-out and setting: for “3-(6-(5-chlorobenzothiazolyl-2-thio)hexyl)-2,4-thiazolidinedione [Compound 16]” the value was 15%.
Turning to `CCC(=O)n1c(SCCCCCN2C(=O)OC(C)C2=O)nc2ccccc21` (stereo not shown) [Compound 15, 3-(5-(1-propionylbenzimidazolyl-2-thio)pentyl)-5-methyl-2,4-oxazolidinedione], the “CE yield (%)” value was 12%.
Same read-out and setting: for “3-(5-(1-methylbenzimidazolyl-2-thio)pentyl)-5-methyl-2,4-oxazolidinedione [Compound 14]” the value was 20%.
Consider `CC(C)Oc1cccc(OC(C)C)c1NC(=O)CN1CCN(CCCSc2nc3ccccc3[nH]2)CC1` [Ref. 2, reference compound], for which the “suppression of foaming of macrophages / cholesterol ester synthesis (result in words)” value is reported as “almost no inhibitory effect” and the “CE yield (%)” value came out at 95%.
`O=C1c2ccccc2C(=O)N1CCCCSCc1nc2ccccc2[nH]1` [Ref. 1, reference compound]: the “suppression of foaming of macrophages / cholesterol ester synthesis (result in words)” value is “completely inactive” and the “CE yield (%)” value came out at 89%.
For `O=C1CSC(=O)N1CCOCCSc1nc2ccccc2[nH]1` [Compound 22], the “CE yield (%)” value was 23%.
Turning to `CCCCCCN(CCCCCSc1nc2ccccc2[nH]1)C(=O)Nc1ccc(F)cc1F` [Ref. 3, reference compound], the “suppression of foaming of macrophages / cholesterol ester synthesis (result in words)” value is reported as “almost no inhibitory effect” and the “CE yield (%)” value is recorded as 78%.
In the case of `O=C1CSC(=O)N1CCCCCSc1nc2ccccc2[nH]1` [Compound 2, 3-(5-(benzimidazolyl-2-thio)pentyl)-2,4-thiazolidinedione], the “CE yield (%)” value stood at 19%.
For the compound `O=C1CCC(=O)N1CCCCCSc1nc2ccccc2[nH]1` [Compound 11, N-(5-(benzimidazolyl-2-thio)pentyl)succinimide], the “CE yield (%)” value is 19%.
